Measurements taken from patent US20240229063A1, “TRANSGENIC CORN EVENT ZM_CSM63715 AND METHODS FOR DETECTION AND USES THEREOF” (Monsanto Technology LLC, priority 2022, published 2024).

System: Cas 12a gRNA target sites on Zea mays B73 chromosome 8
Assay: gRNA target site editing rate by Fragment Length Analysis in stably transformed corn plants
Format: in vivo
Conditions: LbCas12a; for Number of Plants with Target Site Edits: stably transformed corn plants
From the text: Agrobacterium T-DNA vectors were designed to evaluate gRNA and LbCas12a nuclease mediated cleavage at the selected target sites. Each T-DNA vector comprised 3 cassettes. The first cassette comprised a plant codon optimized LbCas12a (SEQ ID NO:33) flanked by the same nuclear localization signal sequence (NLS) at the 5′ and 3′ ends (SEQ ID:191), and was operably linked to Zea mays Ubiquitin promoter (SEQ ID NO:192) and a 3′UTR sequence from a rice lipid transfer protein (LTP) gene (SEQ ID NO:193). The second cassette was a unique gRNA cassette targeting one of the 17 targeting sites described in Table 5. The cassette comprised a Zea mays Pol III promoter operably linked to a Cas12a gRNA unit. […] The third cassette was an EPSPS expression cassette encoding a 5-enolpyruvylshikimate-3-phosphate synthase as a selectable marker for selecting transformants in the present of glyphosate.
Corn embryo explants were transformed with the vectors described above by Agrobacterium-mediated transformation. Transformed plants were selected on glyphosate. Leaf samples from regenerated plantlets were harvested, and genomic DNA was extracted for Fragment Length Analysis (FLA). […] The amplicon fragment lengths were subsequently analyzed using capillary electrophoresis, and compared to a wildtype amplicon to identify mutants that had larger or smaller amplicons due to the presence of indels. […] One μl of the PCR product was combined with 0.5 μl of the GeneScan 1200 LIZ Size Standard (Thermo Fisher, MA), 8.5 μl of formamide, and ran on ABI3730 sequencer (Thermo Fisher, MA) to detect amplicon size and analyzed for fragment length variation to identify plants with mutations at the target sites. […] NA denotes that a transformation was performed, but was not successful. gRNA activity was determined by calculating the percentage of plants that contained a target site indel edit out of the total number of plants examined.

| Substance | Target Editing Rate (percentage of plants with a target site indel edit out of plants examined) [%] | Number of Plants with Target Site Edits |
| --- | --- | --- |
| ZmTS1: LbCas12a gRNA targeting site ZmTS1 (target SEQ ID NO 174, spacer SEQ ID NO 195) (guide ACCGACTTGGGCATATATTATTT; gRNA scaffold not given here) | 11 | 16 |
| ZmTS10: LbCas12a gRNA targeting site ZmTS10 (target SEQ ID NO 183, spacer SEQ ID NO 204) (guide CCACAAGGCTATTCACTCCCTAT; gRNA scaffold not given here) |  | 32 |
